Our source for the IC50 values is patent US20160031907A1, “Substituted Benzene Compounds” (EPIZYME, INC., priority 2013, published 2016).

In this test the test system is WSU-DLCL2 cell line. The experiment in a line: Cell proliferation analysis (Cell Titer Glo, 6 days). The test is classed as cell-based. Particulars: Homo sapiens, WSUDLCL2, 144 h; WSU-DLCL2 cells, 6 days incubation, cell viability by ATP (Cell Titer Glo). The text has this:
Cell Proliferation Analysis
WSU-DLCL2 suspension cells were purchased from DSMZ (German Collection of Microorganisms and Cell Cultures, Braunschweig, Germany). RPMI/Glutamax Medium, Penicillin-Streptomycin, Heat Inactivated Fetal Bovine Serum were purchased from Life Technologies, Grand Island, N.Y., USA. V-bottom polypropylene 384-well plates were purchased from Greiner Bio-One, Monroe, N.C., USA. Cell culture 384-well white opaque plates were purchased from Perkin Elmer, Waltham, Mass., USA. Cell-Titer Glo® was purchased from Promega Corporation, Madison, Wis., USA. SpectraMax M5 plate reader was purchased from Molecular Devices LLC, Sunnyvale, Calif., USA.
WSU-DLCL2 suspension cells were maintained in growth medium (RPMI 1640 supplemented with 10% v/v heat inactivated fetal bovine serum and cultured at 37° C. under 5% CO2. Under assay conditions, cells were incubated in Assay Medium (RPMI 1640 supplemented with 20% v/v heat inactivated fetal bovine serum and 100 units/mL penicillin-streptomycin) at 37° C. under 5% CO2.
For the assessment of the effect of compounds on the proliferation of the WSU-DLCL2 cell line, exponentially growing cells were plated in 384-well white opaque plates at a density of 1250 cell/ml in a final volume of 50 μl of assay medium. A compound source plate was prepared by performing triplicate nine-point 3-fold serial dilutions in DMSO, beginning at 10 mM (final top concentration of compound in the assay was 20 μM and the DMSO was 0.2%). A 100 nL aliquot from the compound stock plate was added to its respective well in the cell plate. The 100% inhibition control consisted of cells treated with 200 nM final concentration of staurosporine and the 0% inhibition control consisted of DMSO treated cells. After addition of compounds, assay plates were incubated for 6 days at 37° C., 5% CO2, relative humidity >90% for 6 days. Cell viability was measured by quantization of ATP present in the cell cultures, adding 35 μl of Cell Titer Glo® reagent to the cell plates. Luminescence was read in the SpectraMax M5. The concentration inhibiting cell viability by 50% was determined using a 4-parametric fit of the normalized dose response curves.
A word on the IC50: it is the concentration that gives 50% inhibition. A high value points to lower potency. In turn, `CCN(c1cc(Cl)cc(C(=O)NCc2c(C)cc(C)n3ccnc23)c1C)[C@H]1CC[C@H](N(C)C)CC1` [Cpd 1] gave a half-maximal inhibitory concentration (IC50) greater than 25 µM.

In turn, `CCN(c1cc(Cl)cc(C(=O)NCc2c(C)ccn3ccnc23)c1C)[C@H]1CC[C@H](N(C)C)CC1` [Cpd 2] gave a concentration for half-maximal inhibition (IC50) greater than 25 µM.

With `CCN(c1cc(Cl)cc(C(=O)NCc2cccn3ccnc23)c1C)[C@H]1CC[C@H](N(C)C)CC1` [Cpd 3], the IC50 was greater than 25 µM.

As for `CCN(c1cc(Cl)cc(C(=O)NCCc2ncc[nH]2)c1C)[C@H]1CC[C@H](N(C)C)CC1` [Cpd 10], the IC50 was greater than 50 µM.

On to `CCN(c1cc(Cl)cc(C(=O)NCc2cncn2C)c1C)C1CCOCC1` [Cpd 22], for which the IC50 is greater than 50 µM.

The molecule `CCN(c1cc(Cl)cc(C(=O)NCc2nccn2C)c1C)C1CCOCC1` [Cpd 23] gave a half-maximal inhibitory concentration (IC50) greater than 50 µM.

The molecule `CCN(c1cc(Cl)cc(C(=O)NCc2nccs2)c1C)C1CCOCC1` [Cpd 24] returned an IC50 greater than 50 µM.

On to `CCN(c1cc(Cl)cc(C(=O)NCc2cn(C)cn2)c1C)C1CCOCC1` [Cpd 25], for which the IC50 is greater than 50 µM.

`CCN(c1cc(Cl)cc(C(=O)NCc2cn3ccsc3n2)c1C)C1CCOCC1` [Cpd 26] yielded an IC50 greater than 50 µM.

`CCN(c1cc(Cl)cc(C(=O)NCc2cnn(C)c2C)c1C)C1CCOCC1` [Cpd 27]: the half-maximal inhibitory concentration (IC50) is greater than 50 µM.

`CCN(c1cc(Cl)cc(C(=O)NCc2ccn(C)n2)c1C)C1CCOCC1` [Cpd 28] came in with an IC50 greater than 50 µM.

Turning to `CCN(c1cc(Cl)cc(C(=O)NCc2cc(C)on2)c1C)C1CCOCC1` [Cpd 29], the IC50 is greater than 50 µM.

`CCN(c1cc(Cl)cc(C(=O)NCc2c[nH]cn2)c1C)C1CCOCC1` [Cpd 30] registered an IC50 of 44.1 µM.

For the molecule `CCN(c1cc(Cl)cc(C(=O)NCc2cc(C)nn2C)c1C)C1CCOCC1` [Cpd 31], the IC50 is greater than 50 µM.
